pIC50: −log10 of the molar value. Structures can show the parent of a compound that is named as a salt.
How the values were obtained:
[1] = test system: human monocyte stimulated cytokine production (TNF-α); assay: Monocyte assay (LPS-stimulated TNF-α production); type: cell-based; conditions: for inhibition at 0.3 µM: read-out: inhibition at 300 nM in the monocyte assay; for pIC50: 24 h, 200 ng/mL LPS, TNF-α by ELISA
Summary of the method: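 Human CD14+ monocytes were purified from blood and plated at 1×10^6 cells/mL in RPMI 1640 with 10% FBS. Compound was added 30 min before stimulation with 200 ng/mL LPS (0.1% DMSO final), followed by 24 hrs at 37 C. Supernatant TNF-α was measured by ELISA, and viability by trypan blue exclusion.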

[2] = biological target: T1, Recombinant human IKKβ (residues 1-737) (Homo sapiens, UniProt O14920); assay: IKK2 assay (TR-FRET); type: biochemical; conditions: ATP 1 μM final, read-out: pIC50 against IKK2 (converted)
T1 construct: Recombinant human IKKβ (residues 1-737); GST (C); made in house
T1 sequence (O14920 1-737): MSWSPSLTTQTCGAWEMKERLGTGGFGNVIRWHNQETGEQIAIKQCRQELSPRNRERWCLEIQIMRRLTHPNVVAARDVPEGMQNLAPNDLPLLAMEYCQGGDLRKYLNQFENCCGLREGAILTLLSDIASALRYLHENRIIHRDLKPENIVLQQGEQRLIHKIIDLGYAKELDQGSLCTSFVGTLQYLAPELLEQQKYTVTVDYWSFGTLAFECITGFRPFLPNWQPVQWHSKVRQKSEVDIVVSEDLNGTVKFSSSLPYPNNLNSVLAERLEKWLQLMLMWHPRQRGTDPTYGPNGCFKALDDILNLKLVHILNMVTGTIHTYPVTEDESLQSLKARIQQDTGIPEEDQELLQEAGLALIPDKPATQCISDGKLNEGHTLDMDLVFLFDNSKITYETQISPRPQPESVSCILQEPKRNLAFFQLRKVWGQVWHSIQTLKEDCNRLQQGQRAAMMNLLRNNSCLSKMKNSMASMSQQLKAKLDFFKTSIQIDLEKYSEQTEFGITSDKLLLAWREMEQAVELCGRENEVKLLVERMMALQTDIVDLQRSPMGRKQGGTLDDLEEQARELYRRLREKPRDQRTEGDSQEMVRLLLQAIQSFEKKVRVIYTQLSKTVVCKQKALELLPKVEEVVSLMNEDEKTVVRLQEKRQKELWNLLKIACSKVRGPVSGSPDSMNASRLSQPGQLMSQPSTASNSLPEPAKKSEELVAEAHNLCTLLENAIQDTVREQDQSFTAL
Summary of the method: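 Baculovirus-expressed C-terminal GST-tagged IKKβ (0.5-5 nM final) in HEPES pH 7.4, MgCl2, CHAPS, DTT, BSA with 1.7% DMSO; 25 nM GST-IB substrate and 1 μM ATP, 15 min at room temperature. EDTA stop; phospho-Ser32/36 detected by Eu-antibody/APC-anti-GST TR-FRET, 665/620 nm ratio.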

Row | Structure (SMILES) | IC50 [2] [µM] | pIC50 [1] | inhibition at 0.3 µM [1] [%]
1 | CCS(=O)(=O)N1CCC(c2c[nH]c3c(C(N)=O)cc(-c4ccc(CNC5CCCC5)s4)cc23)CC1 [Example 189, 5-{5-[(cyclopentylamino)methyl]-2-thienyl}-3-[1-(ethylsulfonyl)-4-piperidinyl]-1H-indole-7-carboxamide] | ≤ 10 | – | 0 to 60
2 | CCS(=O)(=O)N1CCC(c2c[nH]c3c(C(N)=O)cc(-c4ccc(CNCCC(C)C)s4)cc23)CC1 [Example 190, 3-[1-(ethylsulfonyl)-4-piperidinyl]-5-(5-{[(3-methylbutyl)amino]methyl}-2-thienyl)-1H-indole-7-carboxamide] | ≤ 10 | – | 0 to 60
3 | CCOCCCNCc1ccc(-c2cc(C(N)=O)c3[nH]cc(C4CCN(S(=O)(=O)CC)CC4)c3c2)s1 [Example 193, 5-[5-({[3-(ethyloxy)propyl]amino}methyl)-2-thienyl]-3-[1-(ethylsulfonyl)-4-piperidinyl]-1H-indole-7-carboxamide] | ≤ 10 | < 6.00 | –
4 | CCS(=O)(=O)N1CCC(c2c[nH]c3c(C(N)=O)cc(-c4ccc(CNCCCOC)s4)cc23)CC1 [Example 194, 3-[1-(ethylsulfonyl)-4-piperidinyl]-5-[5-({[3-(methyloxy)propyl]amino}methyl)-2-thienyl]-1H-indole-7-carboxamide] | ≤ 10 | < 6.00 | –
5 | CCS(=O)(=O)N1CCC(c2c[nH]c3c(C(N)=O)cc(-c4ccc(CNCC5CCCCC5)s4)cc23)CC1 [Example 195, 5-(5-{[(cyclohexylmethyl)amino]methyl}-2-thienyl)-3-[1-(ethylsulfonyl)-4-piperidinyl]-1H-indole-7-carboxamide] | ≤ 10 | – | 0 to 60
6 | CCS(=O)(=O)N1CCC(c2c[nH]c3c(C(N)=O)cc(-c4ccc(CNCCCOC(C)C)s4)cc23)CC1 [Example 196, 3-[1-(ethylsulfonyl)-4-piperidinyl]-5-{5-[({3-[(1-methylethyl)oxy]propyl}amino)methyl]-2-thienyl}-1H-indole-7-carboxamide] | ≤ 10 | < 6.00 | –
7 | CCOCCNCc1ccc(-c2cc(C(N)=O)c3[nH]cc(C4CCN(S(=O)(=O)CC)CC4)c3c2)s1 [Example 197, 5-[5-({[2-(ethyloxy)ethyl]amino}methyl)-2-thienyl]-3-[1-(ethylsulfonyl)-4-piperidinyl]-1H-indole-7-carboxamide] | ≤ 10 | < 6.00 | –
8 | CCS(=O)(=O)N1CCC(c2c[nH]c3c(C(N)=O)cc(-c4ccc(CN[C@@H](C)C(C)(C)C)s4)cc23)CC1 [Example 200, 3-[1-(ethylsulfonyl)-4-piperidinyl]-5-[5-({[(1S)-1,2,2-trimethylpropyl]amino}methyl)-2-thienyl]-1H-indole-7-carboxamide] | ≤ 10 | < 6.00 | –
9 | CCCCCCNCc1ccc(-c2cc(C(N)=O)c3[nH]cc(C4CCN(S(=O)(=O)CC)CC4)c3c2)s1 [Example 201, 3-[1-(ethylsulfonyl)-4-piperidinyl]-5-{5-[(hexylamino)methyl]-2-thienyl}-1H-indole-7-carboxamide] | ≤ 10 | < 6.00 | –
10 | CCS(=O)(=O)N1CCC(c2c[nH]c3c(C(N)=O)cc(-c4ccnc(N(C)C)c4)cc23)CC1 [Example 202, 5-[2-(dimethylamino)-4-pyridinyl]-3-[1-(ethylsulfonyl)-4-piperidinyl]-1H-indole-7-carboxamide trifluoroacetate] | ≤ 10 | < 6.00 | –
11 | CCS(=O)(=O)N1CCC(c2c[nH]c3c(C(N)=O)cc(-c4ccnc(N5CCCC5)c4)cc23)CC1 [Example 203, trifluoroacetate] | ≤ 10 | < 6.00 | –
12 | CCS(=O)(=O)N1CCC(c2c[nH]c3c(C(N)=O)cc(-c4ccnc(N5CCOCC5)c4)cc23)CC1 [Example 204, 3-[1-(ethylsulfonyl)-4-piperidinyl]-5-[2-(4-morpholinyl)-4-pyridinyl]-1H-indole-7-carboxamide trifluoroacetate] | ≤ 10 | < 6.00 | –
13 | CCS(=O)(=O)N1CCC(c2c[nH]c3c(C(N)=O)cc(-c4ccnc(NCC(C)C)c4)cc23)CC1 [Example 205, 3-[1-(ethylsulfonyl)-4-piperidinyl]-5-{2-[(2-methylpropyl)amino]-4-pyridinyl}-1H-indole-7-carboxamide trifluoroacetate] | ≤ 10 | < 6.00 | –
14 | CCS(=O)(=O)N1CCC(c2c[nH]c3c(C(N)=O)cc(-c4ccnc(NCC(C)(C)C)c4)cc23)CC1 [Example 206, 5-{2-[(2,2-dimethylpropyl)amino]-4-pyridinyl}-3-[1-(ethylsulfonyl)-4-piperidinyl]-1H-indole-7-carboxamide trifluoroacetate] | ≤ 10 | < 6.00 | –
15 | CCCNc1cc(-c2cc(C(N)=O)c3[nH]cc(C4CCN(S(=O)(=O)CC)CC4)c3c2)ccn1 [Example 207, 3-[1-(ethylsulfonyl)-4-piperidinyl]-5-[2-(propylamino)-4-pyridinyl]-1H-indole-7-carboxamide trifluoroacetate] | ≤ 10 | < 6.00 | –

Second part, led by results:

Row | IC50 [2] [µM] | pIC50 [1] | Structure (SMILES) | inhibition at 0.3 µM [1] [%]
16 | ≤ 10 | ≥ 5.82 | CCS(=O)(=O)N1CCC(c2c[nH]c3c(C(N)=O)cc(-c4cncc(CNC(C)C)c4)cc23)CC1 [Example 191, 3-[1-(ethylsulfonyl)-4-piperidinyl]-5-(5-{[(1-methylethyl)amino]methyl}-3-pyridinyl)-1H-indole-7-carboxamide] | –
17 | ≤ 10 | < 6.00 | CCC(CC)CNCc1ccc(-c2cc(C(N)=O)c3[nH]cc(C4CCN(S(=O)(=O)CC)CC4)c3c2)s1 [Example 192, 5-(5-{[(2-ethylbutyl)amino]methyl}-2-thienyl)-3-[1-(ethylsulfonyl)-4-piperidinyl]-1H-indole-7-carboxamide] | –
18 | ≤ 10 | ≥ 5.82 | CCS(=O)(=O)N1CCC(c2c[nH]c3c(C(N)=O)cc(-c4cc(CNC)cs4)cc23)CC1 [Example 208, 3-[1-(ethylsulfonyl)-4-piperidinyl]-5-{4-[(methylamino)methyl]-2-thienyl}-1H-indole-7-carboxamide trifluoroacetate] | –
19 | ≤ 10 | ≥ 5.82 | CCS(=O)(=O)N1CCC(c2c[nH]c3c(C(N)=O)cc(-c4cc(CN5CCCC5)cs4)cc23)CC1 [Example 209, 3-[1-(ethylsulfonyl)-4-piperidinyl]-5-[4-(1-pyrrolidinylmethyl)-2-thienyl]-1H-indole-7-carboxamide trifluoroacetate] | –
20 | ≤ 10 | ≥ 5.82 | CCS(=O)(=O)N1CCC(c2c[nH]c3c(C(N)=O)cc(-c4cc(CNCC(C)C)cs4)cc23)CC1 [Example 210, 3-[1-(ethylsulfonyl)-4-piperidinyl]-5-(4-{[(2-methylpropyl)amino]methyl}-2-thienyl)-1H-indole-7-carboxamide trifluoroacetate] | –
21 | ≤ 10 | ≥ 5.82 | CCS(=O)(=O)N1CCC(c2c[nH]c3c(C(N)=O)cc(-c4cc(CN(C)C)cs4)cc23)CC1 [Example 211, 5-{4-[(dimethylamino)methyl]-2-thienyl}-3-[1-(ethylsulfonyl)-4-piperidinyl]-1H-indole-7-carboxamide trifluoroacetate] | –
22 | ≤ 10 | ≥ 5.82 | CCS(=O)(=O)N1CCC(c2c[nH]c3c(C(N)=O)cc(-c4csc([C@H](C)N5CCCC5)c4)cc23)CC1 [Example 212, 3-[1-(ethylsulfonyl)-4-piperidinyl]-5-{5-[(1S)-1-(1-pyrrolidinyl)ethyl]-3-thienyl}-1H-indole-7-carboxamide] | –
23 | ≤ 10 | ≥ 5.82 | CCS(=O)(=O)N1CCC(c2c[nH]c3c(C(N)=O)cc(-c4csc([C@@H](C)N5CCCC5)c4)cc23)CC1 [Example 213, 3-[1-(ethylsulfonyl)-4-piperidinyl]-5-{5-[(1R)-1-(1-pyrrolidinyl)ethyl]-3-thienyl}-1H-indole-7-carboxamide] | –
24 | ≤ 10 | ≥ 5.82 | CCS(=O)(=O)N1CCC(c2c[nH]c3c(C(N)=O)cc(-c4cc(CNCCCOC)cs4)cc23)CC1 [Example 214, 3-[1-(ethylsulfonyl)-4-piperidinyl]-5-[4-({[3-(methyloxy)propyl]amino}methyl)-2-thienyl]-1H-indole-7-carboxamide trifluoroacetate] | –

— US8063071B2 (GlaxoSmithKline, LLC, priority 2007, dated 2011)
